Experimental data taken from the METLIN SMRT retention time set (Domingo-Almenara et al. 2019).

Experiment: gradient 5% acetonitrile 3 min, to 50% in 2 min, to 85% in 15 min, held 3 min, 100 µL/min
Conditions: column: Zorbax Extend-C18 2.1 x 50 mm; eluents: water / acetonitrile, 0.1% formic acid
Summary of the method: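 Over 3 months, pure standards in mixtures of ~100 molecules were run by HPLC coupled to a quadrupole time-of-flight mass spectrometer in positive and negative ionization mode. The column was a Zorbax Extend-C18 (2.1 × 50 mm, 1.8 μm) at 100 μL/min, eluted with water and acetonitrile each holding 0.1% formic acid, with 40 μL dead and 900 μL dwell volumes. Retention time was determined from adduct peaks chosen by software and checked manually.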

RP-LC retention time [s]	Compound
988	CC(=O)c1cccc(NC(=O)Cn2cccc2-c2nc(-c3ccccc3)no2)c1
1000	Cc1ccc(-c2cc3c4nnc(SCC(=O)Nc5cccc(C)c5C)n4ccn3n2)cc1C
1180	CCOc1ccc(-c2noc(CN3C(=O)COc4cc(Cl)ccc43)n2)cc1
599	CN1CCN(CCNC(=O)c2cnn3c4c(cnc23)CCCCCC4)CC1
644	O=S(=O)(c1ccccc1F)N1CCC2(CCN(c3cccnc3)C2)C1 (configuration not stated)
1010	CCCOc1nc2ccccc2nc1N1CCCC(C(=O)NCC2CCCO2)C1 (configuration not stated)
1080	COC(=O)c1[nH]c(C)c(C(=O)C(C)N(CC2CCCCC2)C(=O)c2ccc(F)cc2)c1C (configuration not stated)
640	O=S(=O)(c1cccnc1)N1CCC2(CC1)NCCc1c2[nH]c2ccccc12
576	O=C(NCCCN1CCCCCC1)c1csc(-c2ccnc(N3CCOCC3)c2)n1
1010	Cc1cc(C)n(-c2cc(Nc3ccccc3)ncn2)n1
856	CC(C)c1ccc(OCC(=O)NCCS(=O)(=O)N2CCN(c3ncccn3)CC2)cc1
979	Cn1cc(-c2ccccc2)cc1C(=O)NCc1cccs1
763	O=S(=O)(c1c[nH]c2ncccc12)N1CCc2ccccc21
950	CCOC(=O)c1ccc(N2C=C(C(=O)N3CCCC3)S(=O)(=O)c3ccc(Cl)cc32)cc1
884	CCCN1CCCCc2cc(C(=O)NC3CCS(=O)(=O)C3)sc21 (configuration not stated)
838	CCC(C)(C)NS(=O)(=O)c1cc(-c2nc(C)c(C(=O)N3CCCC3)s2)n(C)c1
704	Cc1ccc(C)c(S(=O)(=O)NCC2CN(C)CC23CCCCC3)c1 (configuration not stated)
722	CCCC1NN(C)C2C(=O)NC(c3cc(S(=O)(=O)N4CCN(C)CC4)ccc3OCC)NC12 (configuration not stated)

RP-LC retention time [s]	Compound
942	Cc1ccccc1CNS(=O)(=O)c1cc2c(s1)CCN(C(=O)C1CCC1)C2
865	COc1ccc(Cl)cc1C(=O)NC1CCN(c2cc(-c3cccs3)[nH]n2)CC1
730	O=C(NC1CCCCCC1)C1CCCN(c2ccnc(-c3ccc(F)cc3)n2)C1 (configuration not stated)
756	Cc1nn(CC(=O)N2CCCC2)c(=O)c2nc(-c3ccccc3)sc12
848	CCOC(=O)c1sc(NC(C)=O)nc1-c1ccccc1
789	CN(C)S(=O)(=O)c1ccc(C(=O)Nc2nnc(-c3cc4ccccc4o3)o2)cc1
679	Cc1ccc(C)c(CNC(=O)c2cc(-c3ccncc3)cn2C)c1
1140	Cn1c(=O)n(CC(=O)N2CCc3ccccc3C2)c(=O)c2cnc(-c3ccc(Cl)cc3)nc21
680	CCCNC(=O)N(C)Cc1cccnc1OCC
816	CCn1ccc(C(=O)N2CCCC2c2ccc(F)cc2)n1 (configuration not stated)
837	CSc1cccc(NC(=O)N2CCC(C)(C(=O)NCc3ccc4c(c3)OCO4)CC2)c1
801	CC(C)CCn1nc2ccc(S(=O)(=O)N3CCOCC3)cn2c1=O
605	CCN1CCN(c2cc(C)c3cc(NC(=S)NCc4ccccc4OC)ccc3n2)CC1
716	O=C(Cn1cccc1-c1nc(-c2ccccc2)cs1)N1CCC(N2CCCCC2)CC1
1210	COc1cccc(-n2c(=O)c(C(=O)NC3CCCC3)c(O)c3cccnc32)c1
627	COc1cccc2c(C)nc(NC3=NCN(CC4CCCO4)CN3)nc12 (configuration not stated)
832	Cc1nc(-c2noc(-c3ccc(F)cc3)n2)cn1CC(=O)NCc1ccc(F)cc1
1270	CCOc1ccc(C2Cn3nnc(-c4nc(-c5cccc(C)c5)no4)c3CO2)cc1 (configuration not stated)

Compound	RP-LC retention time [s]
CC(C)n1c(-c2cccc(C(=O)N3CCC4(CC3)OCCO4)c2)nc2cccnc21	693
